Source: article PMC4840262 (Mutagenesis, 2015)
Counter-ions that a name gives are not always drawn. Like-named read-outs stand apart in the source and are kept apart here. Marks after values point to notes of the source that are not given here.

Columns and labels:
human lymphocytes [1] = system: human lymphocytes
human lymphocytes [2] = conditions: male, human
CHO-K1 cells [3] = conditions: Chinese hamster
CHO-K1 cells [4] = conditions: cited from earlier work
rats = conditions: lifetime studies in the rat; cited from earlier work
mice = conditions: lifetime studies in the mouse; cited from earlier work
[5] = human PK studies, high therapeutic doses; cited from earlier work

SMILES | BMD10 (CHO-K1 cells [3]) | BMDL10 (CHO-K1 cells [3]) | Td (threshold dose) (CHO-K1 cells [4]) | Td–L–CI (lower confidence Td) (CHO-K1 cells [4]) | other results
CCC[S+]([O-])c1ccc2[nH]c(NC(=O)OC)nc2c1 (stereo not shown) [Albendazole sulfoxide, albendazole sulfoxide] | 1.100 µg/mL | 0.861 µg/mL | 1.708 µg/mL | 1.474 µg/mL | Lowest non-significant doses (micronuclei) (human lymphocytes [1]; male, human): 3.0 µg per ml; %C+ micronuclei (human lymphocytes [2]): 71%; %C− micronuclei (human lymphocytes [2]): 29%
CCCSc1ccc2nc(NC(=O)OC)[nH]c2c1 [Albendazole, albendazole] | 0.037 µg/mL | 0.027 µg/mL | 0.005 µg/mL | 0.003 µg/mL | Fold increases in MN over concurrent vehicle control (human lymphocytes [1]; male, human): 9.3; Lowest non-significant doses (micronuclei) (human lymphocytes [1]; male, human): 0.04 µg per ml; %C+ micronuclei (human lymphocytes [2]): 72%; %C− micronuclei (human lymphocytes [2]): 28%; Carcinogenicity (in words) (rats): negative; Carcinogenicity (in words) (mice): negative
CCCCNC(=O)n1c(NC(=O)OC)nc2ccccc21 [Benomyl, benomyl] | 0.450 µg/mL | 0.348 µg/mL | 0.659 µg/mL | 0.520 µg/mL | –
COC(=O)Nc1nc2ccccc2[nH]1 [Carbendazim, carbendazim] | 0.310 µg/mL | 0.235 µg/mL | 0.346 µg/mL | 0.268 µg/mL | –
O=P1(N(CCCl)CCCl)NCCCO1 (stereo not shown) [Cyclophosphamide, cyclophosphamide] | – | – | – | – | Fold increases in MN over concurrent vehicle control (human lymphocytes [1]; male, human): 5.6; Mean MNBN cell frequency (%) (human lymphocytes [1]; male, human): 1.40* %; % micronuclei with a centromere (human lymphocytes [2]): 16%; % micronuclei without a centromere (human lymphocytes [2]): 84%
COC(=O)Nc1nc2ccc(C(=O)c3ccccc3)cc2[nH]1 [Mebendazole, mebendazole] | 0.024 µg/mL | 0.018 µg/mL | – | – | Oral bioavailability [5]: around 2%
CO[C@@]12[C@H](COC(N)=O)C3=C(C(=O)C(C)=C(N)C3=O)N1C[C@@H]1N[C@@H]12 [Mitomycin C, mitomycin C] | – | – | – | – | Mean MNBN cell frequency (%) (human lymphocytes [1]; male, human): 8.70* %
CCCOc1ccc2nc(NC(=O)OC)[nH]c2c1 [Oxibendazole, oxibendazole] | 0.015 µg/mL | 0.010 µg/mL | 0.032 µg/mL | 0.032 µg/mL | –
COC(=O)Nc1nc2ccc([C@H](O)c3ccc(F)cc3)cc2[nH]1 [R-reduced flubendazole] | – | – | – | – | Cytotoxicity (%) (human lymphocytes [1]): 3.0%; Lowest dose, significant increase in micronuclei seen (human lymphocytes [1]): 1.1 µg per ml
COC(=O)Nc1nc2ccc(C(O)c3ccc(F)cc3)cc2[nH]1 (stereo not shown) [S-reduced flubendazole] | – | – | – | – | Cytotoxicity (%) (human lymphocytes [1]): 0.0%
CC[C@]1(O)C[C@@H]2CN(CCc3c([nH]c4ccccc34)[C@@](C(=O)OC)(c3cc4c(cc3OC)N(C)[C@H]3[C@@](O)(C(=O)OC)[C@H](OC(C)=O)[C@]5(CC)C=CCN6CC[C@]43[C@@H]65)C2)C1 [Vinblastine, vinblastine sulfate] | – | – | – | – | Fold increases in MN over concurrent vehicle control (human lymphocytes [1]; 0.12 μg/ml): 56.6; Frequency of micronucleated binucleate cells (%) (human lymphocytes [1]; male, human): 9.25* %
c1ccc2[nH]c(-c3cscn3)nc2c1 [thiabendazole] | – | – | – | – | MNBN induction in CHO-K1 cells (in words) (CHO-K1 cells [4]): inactive
